Laboratory results from paper PMC8903829 (eLife, 2022).
Where “and” joins values, the source holds several entries; their conditions need not be identical. Identical values can stand only once. Entries after “also recorded” stand apart in the source; their conditions may differ.

Tests used:
Format in all cases: cell-based
[1] = biological target: T1, N1768D NaV1.6 persistent currents (Homo sapiens, UniProt Q9UQD0, N1768D); test: Persistent current inhibition
T1 construct: expression vector containing the full-length cDNA coding for specific human and mouse sodium channel α-subunit; expressed in transfected cells; host or cells: Expi293F (transient, tetracycline-induced, pcDNA4/TO)
Excerpt: Elevated persistent and or resurgent currents are believed to underlie or contribute to the pathology of many sodium channel related pathologies ([Mason et al., 2019]; [Pan and Cummins, 2020]; [Potet et al., 2020]; [Tidball et al., 2020]; [Zaman et al., 2019]). In most conditions, normal NaV1.6 channels inactivate rapidly and nearly completely after opening.
(§1) Inorm(CPD)=(ICPD−Icontrol)/(ITTX−Icontrol).

[2] = biological target: T2, hNaV1.6 T767I (Homo sapiens, UniProt Q9UQD0, T767I); test: Automated patch-clamp, patient-identified variant in Expi293F cells
T2 construct: expression vector containing the full-length cDNA coding for specific human and mouse sodium channel α-subunit; expressed in transfected cells; host or cells: Expi293F (transient, tetracycline-induced, pcDNA4/TO)
Protocol: For studies of mutant channels, cDNA plasmids in pcDNA4/TO Mammalian Expression Vector were transiently transfected into Expi293F cells stably expressing human FHF2b and human SCN1B subunit (polyclonal) background using ExpiFectamine 293 Transfection Kits (Gibco,Thermo Fisher Scientific CAT #: A14524). Induction was achieved using Tetracycline (Sigma Aldrich). Transfected cells were used in automated patch-clamp experiments 24 hours postinduction.
as §1

[3] = biological target: T3, hNaV1.5 (Homo sapiens, UniProt Q14524); test: Qube 384 automated patch-clamp, inactivated-state inhibition
T3 construct: expression vector containing the full-length cDNA coding for specific human and mouse sodium channel α-subunit; expressed in transfected cells

[4] = tested on: glutamatergic pyramidal neurons from mouse layer five neocortex; test: Current-clamp recording in brain slices, action-potential firing; conditions: for WT Cortical pyramidal neurons APs/1s: 0.25 μM, individual neurons; for Cumulative number of action potentials fired by each cell on increasing current injections: 250 nM, WT cortical pyramidal neurons
Protocol: Parasagittal cortical brain slices were prepared from> P21 mice using standard procedures (adapted from Tai et al., PNAS 2014). Briefly, the mouse was deeply anaesthetized with isoflurane and decapitated. The brain was removed and placed into chilled artificial cerebrospinal fluid (aCSF) solution containing (in mM): 125 NaCl, 25 NaHCO3, 2.5 KCl, 1.25 NaH2PO4, 2 CaCl2, 2 MgCl2, 10 d-glucose, pH 7.3, osmolarity adjusted to ~306 mOsm using sucrose. All solutions were saturated with 95% O2 and 5% CO2 constantly perfused with 95% O2/5% CO2. Slices with a thickness of 400 µm were prepared using a vibratome (Ted Pella, Inc). Following sectioning, the slices were placed in a holding chamber and incubated in a water bath at 34 °C for 15 min. The brain slices were removed from the water bath and held at room temperature for 60 min prior to recording.
All experiments involving rodent subjects were performed in accordance with the guidelines of the Canadian Council on Animal Care (CCAC). Following a 60-min incubation at room temperature, a brain slice was selected and placed on the stage of an upright microscope (SliceScope Pro 2000, Scientifica). The slice was constantly perfused with room temperature aCSF, containing 0.1% DMSO as a vehicle control, and oxygenated with 95% O2/5% CO2.The slice was visualized using brightfield microscopy, and a healthy neuron was selected from neocortical layer 5. […] Stimulation was applied in current-clamp mode, and consisted of a series of 1000ms square pulses, beginning at –20 pA and increasing by +20 pA increments (3000ms between pulses).
The slice was incubated in circulating compound for 10 min before repeating the series of square pulse stimulations. Working stock solutions were prepared in DMSO at a concentration of 20 mM.
All data analysis was done offline using ClampFit 10.7 (Molecular Devices). Data are presented as a mean ± SEM. For each sweep, the number of evoked APs was counted, and plotted as a function of current injection (beginning with –20 pA). […] Statistical significance was assessed using paired, two-way, student’s t-test applied at each current injection level with significance considered p < 0.05.

[5] = biological target: T4, hNaV1.6 (Homo sapiens, UniProt Q9UQD0); test: V0.5 assay (holding potential -62 mV); conditions: V0.5 assay -62 mV
T4 construct: expression vector containing the full-length cDNA coding for specific human and mouse sodium channel α-subunit; expressed in transfected cells
T4 sequence (Q9UQD0 whole entry): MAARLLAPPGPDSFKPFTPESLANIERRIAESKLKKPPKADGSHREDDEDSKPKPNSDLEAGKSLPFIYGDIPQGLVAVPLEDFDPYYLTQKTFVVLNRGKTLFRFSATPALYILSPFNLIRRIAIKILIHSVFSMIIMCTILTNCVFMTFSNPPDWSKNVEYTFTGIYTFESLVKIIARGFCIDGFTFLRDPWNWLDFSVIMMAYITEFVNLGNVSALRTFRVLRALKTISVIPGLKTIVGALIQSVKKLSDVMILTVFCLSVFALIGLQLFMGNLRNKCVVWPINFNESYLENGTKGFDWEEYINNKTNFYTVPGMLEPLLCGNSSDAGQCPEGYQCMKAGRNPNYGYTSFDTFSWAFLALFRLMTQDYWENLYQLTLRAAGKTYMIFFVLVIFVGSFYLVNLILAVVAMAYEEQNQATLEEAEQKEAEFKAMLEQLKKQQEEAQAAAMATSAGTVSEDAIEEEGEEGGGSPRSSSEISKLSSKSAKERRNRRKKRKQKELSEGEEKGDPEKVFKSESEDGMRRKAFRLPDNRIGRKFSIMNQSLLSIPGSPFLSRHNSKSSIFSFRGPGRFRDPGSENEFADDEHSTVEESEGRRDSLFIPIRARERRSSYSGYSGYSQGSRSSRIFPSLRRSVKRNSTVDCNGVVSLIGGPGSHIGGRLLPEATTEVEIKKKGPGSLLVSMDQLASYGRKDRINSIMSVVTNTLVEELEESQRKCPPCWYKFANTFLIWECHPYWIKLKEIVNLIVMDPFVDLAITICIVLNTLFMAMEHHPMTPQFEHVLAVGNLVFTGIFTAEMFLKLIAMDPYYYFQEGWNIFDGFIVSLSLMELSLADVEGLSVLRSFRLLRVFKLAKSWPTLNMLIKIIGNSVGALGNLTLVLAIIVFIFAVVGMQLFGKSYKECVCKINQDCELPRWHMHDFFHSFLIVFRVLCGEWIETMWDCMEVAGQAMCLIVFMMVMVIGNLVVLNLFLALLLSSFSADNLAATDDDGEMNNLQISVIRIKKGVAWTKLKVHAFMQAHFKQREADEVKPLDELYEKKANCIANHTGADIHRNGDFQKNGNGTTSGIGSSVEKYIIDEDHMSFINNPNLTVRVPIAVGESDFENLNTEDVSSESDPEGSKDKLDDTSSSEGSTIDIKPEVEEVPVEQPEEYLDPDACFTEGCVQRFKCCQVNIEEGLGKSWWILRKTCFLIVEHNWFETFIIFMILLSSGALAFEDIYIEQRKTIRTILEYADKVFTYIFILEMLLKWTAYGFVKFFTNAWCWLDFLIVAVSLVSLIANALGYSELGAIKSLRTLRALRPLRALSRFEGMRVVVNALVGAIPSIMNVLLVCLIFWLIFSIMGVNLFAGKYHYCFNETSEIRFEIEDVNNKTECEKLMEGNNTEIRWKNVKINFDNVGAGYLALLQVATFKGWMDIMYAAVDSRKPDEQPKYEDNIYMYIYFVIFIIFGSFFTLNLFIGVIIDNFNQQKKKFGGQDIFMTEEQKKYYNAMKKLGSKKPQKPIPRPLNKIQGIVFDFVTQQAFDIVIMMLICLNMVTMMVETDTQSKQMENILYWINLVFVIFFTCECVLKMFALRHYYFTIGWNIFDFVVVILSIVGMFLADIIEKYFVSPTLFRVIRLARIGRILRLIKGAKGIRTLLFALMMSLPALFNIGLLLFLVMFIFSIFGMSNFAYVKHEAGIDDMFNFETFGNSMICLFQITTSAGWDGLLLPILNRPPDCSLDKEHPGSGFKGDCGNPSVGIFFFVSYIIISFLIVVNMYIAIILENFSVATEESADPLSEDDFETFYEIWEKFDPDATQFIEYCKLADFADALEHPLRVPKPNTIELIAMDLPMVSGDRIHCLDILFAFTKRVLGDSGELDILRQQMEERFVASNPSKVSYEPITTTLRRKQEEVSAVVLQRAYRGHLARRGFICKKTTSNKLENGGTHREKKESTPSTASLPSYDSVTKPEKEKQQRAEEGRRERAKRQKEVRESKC
T4 sequence (Q92913 1-192 isoform Q92913-2 partner): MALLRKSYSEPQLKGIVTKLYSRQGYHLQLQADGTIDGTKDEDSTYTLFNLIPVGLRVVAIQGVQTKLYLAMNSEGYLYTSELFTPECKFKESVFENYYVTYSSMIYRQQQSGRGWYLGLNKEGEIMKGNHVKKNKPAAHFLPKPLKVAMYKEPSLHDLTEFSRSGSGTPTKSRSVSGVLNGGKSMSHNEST

T1 sequence (Q9UQD0 whole entry N1768D): as the sequence (Q9UQD0 whole entry) above, with N1768D counted along it
T1 sequence (Q92913 1-192 isoform Q92913-2 partner): as the sequence (Q92913 1-192 isoform Q92913-2 partner) above
T2 sequence (Q9UQD0 whole entry T767I): as the sequence (Q9UQD0 whole entry) above, with T767I counted along it
T3 sequence (Q14524 whole entry): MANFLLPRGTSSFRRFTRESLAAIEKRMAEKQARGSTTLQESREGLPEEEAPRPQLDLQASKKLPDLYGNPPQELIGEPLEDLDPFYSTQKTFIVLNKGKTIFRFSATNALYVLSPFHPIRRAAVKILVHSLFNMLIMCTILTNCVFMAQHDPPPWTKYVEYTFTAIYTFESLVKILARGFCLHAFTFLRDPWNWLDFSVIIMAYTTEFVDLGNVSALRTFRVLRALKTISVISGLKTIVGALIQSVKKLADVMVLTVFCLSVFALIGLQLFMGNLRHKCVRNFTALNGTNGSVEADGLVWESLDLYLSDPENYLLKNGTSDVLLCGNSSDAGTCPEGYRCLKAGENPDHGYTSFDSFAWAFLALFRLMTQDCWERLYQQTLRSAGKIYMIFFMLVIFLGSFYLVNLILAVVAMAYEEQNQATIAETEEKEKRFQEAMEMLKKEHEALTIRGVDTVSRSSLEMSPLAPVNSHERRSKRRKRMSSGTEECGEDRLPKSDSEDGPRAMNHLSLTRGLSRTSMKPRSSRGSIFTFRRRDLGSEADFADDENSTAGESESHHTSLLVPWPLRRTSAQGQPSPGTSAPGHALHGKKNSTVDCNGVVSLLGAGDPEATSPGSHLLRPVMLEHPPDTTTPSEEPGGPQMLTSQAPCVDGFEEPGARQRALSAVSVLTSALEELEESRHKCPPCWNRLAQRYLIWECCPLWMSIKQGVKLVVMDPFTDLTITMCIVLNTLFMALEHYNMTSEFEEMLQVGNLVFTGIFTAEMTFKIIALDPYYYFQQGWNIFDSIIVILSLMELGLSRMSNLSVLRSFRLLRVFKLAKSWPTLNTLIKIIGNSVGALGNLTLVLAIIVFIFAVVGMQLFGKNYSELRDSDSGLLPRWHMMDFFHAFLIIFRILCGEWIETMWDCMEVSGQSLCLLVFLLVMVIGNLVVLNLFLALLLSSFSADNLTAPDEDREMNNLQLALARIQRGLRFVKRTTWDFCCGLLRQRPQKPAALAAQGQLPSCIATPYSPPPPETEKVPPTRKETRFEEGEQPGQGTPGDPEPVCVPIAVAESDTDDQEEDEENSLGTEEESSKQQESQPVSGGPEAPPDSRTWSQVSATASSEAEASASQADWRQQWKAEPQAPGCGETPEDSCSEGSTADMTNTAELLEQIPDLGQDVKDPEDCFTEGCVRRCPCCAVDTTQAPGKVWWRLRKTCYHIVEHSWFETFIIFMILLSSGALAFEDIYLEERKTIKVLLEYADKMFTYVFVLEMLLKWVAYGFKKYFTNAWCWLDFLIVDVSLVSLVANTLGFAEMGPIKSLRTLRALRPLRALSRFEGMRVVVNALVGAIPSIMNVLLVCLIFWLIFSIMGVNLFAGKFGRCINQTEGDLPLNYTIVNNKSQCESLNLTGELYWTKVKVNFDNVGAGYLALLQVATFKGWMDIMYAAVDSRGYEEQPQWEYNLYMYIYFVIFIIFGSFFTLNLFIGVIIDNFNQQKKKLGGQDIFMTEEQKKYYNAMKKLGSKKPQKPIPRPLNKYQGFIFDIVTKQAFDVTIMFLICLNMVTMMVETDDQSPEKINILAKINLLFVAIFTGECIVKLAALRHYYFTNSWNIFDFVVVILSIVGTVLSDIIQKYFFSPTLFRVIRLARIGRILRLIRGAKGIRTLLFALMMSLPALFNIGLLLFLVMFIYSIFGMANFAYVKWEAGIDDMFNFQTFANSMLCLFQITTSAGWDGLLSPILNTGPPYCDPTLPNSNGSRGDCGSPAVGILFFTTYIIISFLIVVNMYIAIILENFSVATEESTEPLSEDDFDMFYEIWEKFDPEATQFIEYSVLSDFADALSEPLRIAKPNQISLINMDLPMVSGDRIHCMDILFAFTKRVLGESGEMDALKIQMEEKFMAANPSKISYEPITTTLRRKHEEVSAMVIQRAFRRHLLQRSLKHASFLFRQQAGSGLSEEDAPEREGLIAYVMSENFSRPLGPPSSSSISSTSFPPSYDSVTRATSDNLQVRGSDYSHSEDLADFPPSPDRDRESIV

Cc1cc(S(=O)(=O)Nc2cscn2)c(F)cc1N(C)[C@H]1CCN(Cc2ccccc2)C1 [NBI-921352]
N1768D current in (352)/(Vehicle), Persistent, mean ([1]; -5 Log M): 0.93 | N1768D current in (352)/(Vehicle), Persistent, mean ([1]; -5.47712 Log M): 0.92 | N1768D current in (352)/(Vehicle), Persistent, mean ([1]; -5.95424 Log M): 0.91 | N1768D current in (352)/(Vehicle), Persistent, mean ([1]; -6.43136 Log M): 0.87 | N1768D current in (352)/(Vehicle), Persistent, mean ([1]; -6.90848 Log M): 0.63 | N1768D current in (352)/(Vehicle), Persistent, mean ([1]; -7.38561 Log M): 0.44 | N1768D current in (352)/(Vehicle), Persistent, mean ([1]; -7.86274 Log M): 0.21 | N1768D current in (352)/(Vehicle), Persistent, mean ([1]; -8.33989 Log M): 0 | IC50 ([1]; non-inactivating current 10ms after initiation of test pulse): 59 nM | IC50 [2]: 31 nM | h1.6-T767I 145756, Mean ([2]; -5 LogM): 0.91 | h1.6-T767I 145756, Mean ([2]; -5.47716 LogM): 0.92 | h1.6-T767I 145756, Mean ([2]; -5.95429 LogM): 0.86 | h1.6-T767I 145756, Mean ([2]; -6.4318 LogM): 0.86 | h1.6-T767I 145756, Mean ([2]; -6.91009 LogM): 0.75 | h1.6-T767I 145756, Mean ([2]; -7.38722 LogM): 0.58 | h1.6-T767I 145756, Mean ([2]; -7.85387 LogM): 0.19 | h1.6-T767I 145756, Mean ([2]; -8.33 LogM): 0.1 | inhibition at 30 µM ([3]; 30 µM, NaV1.5, read-out: inhibition at the highest concentration tested): < 50% | hNaV1.5 current (352)/(Vehicle), mean ([3]; -4.52288 Log M): 0.24 | hNaV1.5 current (352)/(Vehicle), mean ([3]; -5 Log M): 0.1 | hNaV1.5 current (352)/(Vehicle), mean ([3]; -5.47716 Log M): 0.02 | hNaV1.5 current (352)/(Vehicle), mean ([3]; -5.95429 Log M): 0.05 | hNaV1.5 current (352)/(Vehicle), mean ([3]; -6.91009 Log M): 0.04 | hNaV1.5 current (352)/(Vehicle), mean ([3]; -7.38722 Log M): -0.02 | hNaV1.5 current (352)/(Vehicle), mean ([3]; -7.85387 Log M): 0.03 | effect on action-potential firing, pyramidal neurons ([4]; 0.25 µM NBI-921352): decreased the maximum firing rate; also recorded: reduced action-potential spiking | WT Cortical pyramidal neurons APs/1s ([4]; 200 pA current injected): 0 APs/1s and 12 APs/1s and 13 APs/1s | WT Cortical pyramidal neurons APs/1s ([4]; current injected 0 pA): 0 APs/1s | WT Cortical pyramidal neurons APs/1s ([4]; current injected 20 pA): 0 APs/1s | WT Cortical pyramidal neurons APs/1s ([4]; current injected 40 pA): 0 APs/1s | WT Cortical pyramidal neurons APs/1s ([4]; current injected 60 pA, row): 0 APs/1s and 1 APs/1s and 2 APs/1s | WT Cortical pyramidal neurons APs/1s ([4]; current injected 80 pA, row): 0 APs/1s and 4 APs/1s and 6 APs/1s | WT Cortical pyramidal neurons APs/1s ([4]; current injected 100 pA, row): 0 APs/1s and 6 APs/1s and 8 APs/1s | WT Cortical pyramidal neurons APs/1s ([4]; current injected 120 pA, row): 0 APs/1s and 7 APs/1s and 9 APs/1s | WT Cortical pyramidal neurons APs/1s ([4]; current injected 140 pA, row): 0 APs/1s and 8 APs/1s and 10 APs/1s | WT Cortical pyramidal neurons APs/1s ([4]; current injected 160 pA, row): 0 APs/1s and 9 APs/1s and 12 APs/1s | WT Cortical pyramidal neurons APs/1s ([4]; current injected 180 pA, row): 0 APs/1s and 11 APs/1s (2×) | WT Cortical pyramidal neurons APs/1s ([4]; current injected 200 pA, row): 0 APs/1s and 12 APs/1s and 13 APs/1s | WT Cortical pyramidal neurons APs/1s ([4]; current injected 220 pA, row): 1 APs/1s and 13 APs/1s and 14 APs/1s | WT Cortical pyramidal neurons APs/1s ([4]; current injected 240 pA, row): 3 APs/1s and 14 APs/1s and 15 APs/1s | WT Cortical pyramidal neurons APs/1s ([4]; current injected 260 pA, row): 4 APs/1s and 15 APs/1s and 13 APs/1s | WT Cortical pyramidal neurons APs/1s ([4]; current injected 280 pA, row): 4 APs/1s and 15 APs/1s and 13 APs/1s | WT Cortical pyramidal neurons APs/1s ([4]; current injected 300 pA, row): 4 APs/1s and 17 APs/1s and 13 APs/1s | WT Cortical pyramidal neurons APs/1s ([4]; current injected 320 pA, row): 5 APs/1s and 18 APs/1s and 13 APs/1s | WT Cortical pyramidal neurons APs/1s ([4]; current injected 340 pA, row): 5 APs/1s and 19 APs/1s and 12 APs/1s | WT Cortical pyramidal neurons APs/1s ([4]; current injected 360 pA, row): 6 APs/1s and 20 APs/1s and 12 APs/1s | WT Cortical pyramidal neurons APs/1s ([4]; current injected 380 pA, row): 7 APs/1s (2×) and 21 APs/1s | WT Cortical pyramidal neurons APs/1s ([4]; current injected 400 pA, row): 8 APs/1s and 22 APs/1s and 13 APs/1s | WT Cortical pyramidal neurons APs/1s ([4]; current injected 420 pA, row): 7 APs/1s and 22 APs/1s and 5 APs/1s | WT Cortical pyramidal neurons APs/1s ([4]; current injected 440 pA, row): 7 APs/1s and 23 APs/1s and 4 APs/1s | WT Cortical pyramidal neurons APs/1s ([4]; current injected -20 pA): 0 APs/1s | Cumulative number of action potentials fired by each cell on increasing current injections ([4]; up to current injected 0 pA): 0 | Cumulative number of action potentials fired by each cell on increasing current injections ([4]; up to current injected 20 pA): 0 | Cumulative number of action potentials fired by each cell on increasing current injections ([4]; up to current injected 40 pA): 0 | Cumulative number of action potentials fired by each cell on increasing current injections ([4]; up to current injected -20 pA): 0 | Fraction of hNav1.6 current blocked, mean ([5]; 0.0046 µM): -0.01128 | Fraction of hNav1.6 current blocked, mean ([5]; 0.0137 µM): 0.1547 | Fraction of hNav1.6 current blocked, mean ([5]; 0.0412 µM): 0.4966 | Fraction of hNav1.6 current blocked, mean ([5]; 0.123 µM): 0.6688 | Fraction of hNav1.6 current blocked, mean ([5]; 0.37 µM): 0.8319 | Fraction of hNav1.6 current blocked, mean ([5]; 1.11 µM): 0.9499 | Fraction of hNav1.6 current blocked, mean ([5]; 3.33 µM): 0.9695 | Fraction of hNav1.6 current blocked, mean ([5]; 10 µM): 0.9977
